Literature values, collected in patent publication US20080089844A1 (priority 2002, published 2008).

Biological target: F425G Shaker mutation (Drosophila melanogaster, UniProt P08510, F425G)
Conditions: cited from earlier work

Chain of F425G Shaker mutation (P08510 whole entry F425G, looked up): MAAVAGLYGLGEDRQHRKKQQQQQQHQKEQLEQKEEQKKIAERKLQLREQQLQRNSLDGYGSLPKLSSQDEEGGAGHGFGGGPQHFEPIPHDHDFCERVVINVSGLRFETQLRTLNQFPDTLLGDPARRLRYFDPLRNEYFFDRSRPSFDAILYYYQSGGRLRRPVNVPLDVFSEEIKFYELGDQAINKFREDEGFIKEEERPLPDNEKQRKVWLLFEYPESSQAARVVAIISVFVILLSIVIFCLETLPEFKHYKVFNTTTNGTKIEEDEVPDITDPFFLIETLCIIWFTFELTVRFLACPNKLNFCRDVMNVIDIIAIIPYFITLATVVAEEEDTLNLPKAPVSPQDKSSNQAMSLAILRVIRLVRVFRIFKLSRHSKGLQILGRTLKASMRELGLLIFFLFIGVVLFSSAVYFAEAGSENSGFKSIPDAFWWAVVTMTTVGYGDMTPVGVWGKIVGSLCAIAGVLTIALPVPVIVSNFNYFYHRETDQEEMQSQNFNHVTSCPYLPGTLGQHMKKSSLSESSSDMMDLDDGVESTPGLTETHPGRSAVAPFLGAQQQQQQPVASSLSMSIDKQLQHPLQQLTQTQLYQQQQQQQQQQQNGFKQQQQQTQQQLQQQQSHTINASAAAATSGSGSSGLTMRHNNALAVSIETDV

charybdotoxin [reference compound]
effect of F425G Shaker mutation on charybdotoxin affinity: increases charybdotoxin affinity by three orders of magnitude
